A value given as a limit tells only on which side of the number the result lay.

For one assay, the target named is T1, pSTAT3 (pY705-STAT3) (Homo sapiens, UniProt P40763).
T1 construct: host or cells: cryopreserved PBMC
T1 sequence (P40763 whole entry): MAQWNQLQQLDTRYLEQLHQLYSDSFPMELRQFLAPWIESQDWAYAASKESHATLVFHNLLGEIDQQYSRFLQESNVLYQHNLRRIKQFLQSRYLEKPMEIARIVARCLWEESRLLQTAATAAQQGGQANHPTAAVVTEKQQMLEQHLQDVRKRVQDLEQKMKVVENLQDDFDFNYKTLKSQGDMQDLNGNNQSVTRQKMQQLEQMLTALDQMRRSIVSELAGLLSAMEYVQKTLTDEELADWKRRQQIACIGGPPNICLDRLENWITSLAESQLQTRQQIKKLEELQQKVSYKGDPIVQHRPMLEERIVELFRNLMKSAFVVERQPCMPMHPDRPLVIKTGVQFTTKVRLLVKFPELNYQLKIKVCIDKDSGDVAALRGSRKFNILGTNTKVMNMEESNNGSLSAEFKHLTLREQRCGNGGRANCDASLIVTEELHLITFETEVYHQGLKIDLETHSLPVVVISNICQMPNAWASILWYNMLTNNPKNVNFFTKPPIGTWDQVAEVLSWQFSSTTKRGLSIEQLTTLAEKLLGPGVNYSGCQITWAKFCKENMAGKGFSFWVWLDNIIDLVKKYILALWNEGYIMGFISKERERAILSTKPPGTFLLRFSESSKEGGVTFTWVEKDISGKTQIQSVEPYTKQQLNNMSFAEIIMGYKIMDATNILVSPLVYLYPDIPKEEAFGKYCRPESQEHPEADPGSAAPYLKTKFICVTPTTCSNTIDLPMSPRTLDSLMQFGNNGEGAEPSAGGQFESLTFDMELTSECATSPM
Put plainly: MSD-pSTAT-PBMC Assay (pSTAT3, IL-6 stimulated). The class given is cell-based.
Details: not given
The source says: Cryopreserved Peripheral Blood Mononuclear Cells (PBMC) are from AllCells. Recombinant Human IL-4 and IL-6 are from Peprotech. Mouse monoclonal anti-STAT3 antibody, rabbit monoclonal anti-pY705-STAT3 antibody, rabbit monoclonal Anti-pY641-STAT6 antibody, and lysis buffer are from Cell Signaling Technology (CST). Mouse monoclonal anti-STAT6 antibody is from BioLegend. Assay plates, blocker, and anti-rabbit secondary antibody are from Meso Scale Discovery (MSD).
Cryopreserved PBMCs were thawed out and allowed to recover overnight in IMDM+10% heat-inactivated FBS prior to plating 50,000 (STAT3) or 25,000 (STAT6) cells per well in 96-well U-bottom tissue culture plates. Cells were treated with compound for 3 hrs, then stimulated with 10 ng/mL IL-6 (STAT3) or 1 ng/mL IL-4 (STAT6) for 10 min. Cells were then spun down and washed with ice-cold PBS prior to lysing the cell pellet with 1× lysis buffer (CST) with 1× HALT protease and phosphatase inhibitor cocktail (Thermo). Lysates were transferred to and incubated overnight at 4° C. with shaking in QuickPlex 96-well high bind assay plates (MSD) pre-coated overnight with 30 μL per well of 0.6 μg/mL mouse monoclonal anti-STAT3 antibody (STAT3) or 2 μg/mL mouse monoclonal anti-STAT6 antibody (STAT6) in 1×PBS, and pre-blocked for 1 hour with 3% Blocker-A (MSD). Captured protein in the assay plates were then washed and probed with 25 μL per well of 0.25 μg/ml rabbit monoclonal anti-pY705-STAT3 antibody (STAT3) or 0.18 μg/ml rabbit monoclonal Anti-pY641-STAT6 antibody (STAT6) in 1% Blocker-A for 1 hour at room temperature with shaking, then washed and probed with 25 ul per well of 1 ug/mi Sulfo-TAG Labeled Goat Anti-Rabbit Antibody (MSD) in 1% Blocker-A for 1 hour at room temperature with shaking. Assay plates were then washed and 150 μL of 1× Read Buffer-T (MSD) was added to each well prior to reading on an SQ120 MSD Plate Reader. Assay signal from each sample was subtracted by the signal from unstimulated control wells and normalized to DMSO control wells. IC50 values were calculated using Graph Pad Prism Dose-Response Nonlinear Regression with variable slope. For both pSTAT3 and pSTAT6 A=≤100 nM; B=>100-1000 nM; C=>1000-3000 nM; and D=>3 μM.
Take `CCCOC(=O)[C@H](C)N[P@](=O)(Oc1ccccc1)C(F)c1ccc2sc(C(=O)N[C@H]3C[C@@H]4C[C@@H]4C[C@H]4CC[C@@H](C(=O)N5CC(c6cnccc6N(C)C)C5)N4C3=O)cc2c1` (stereo partly drawn) [Compound 418, propyl((R)-((S)-(2-(((3S,6S,7aS,8aR,9aR)-3-(3-(4-(dimethylamino)pyridin-3-yl)azetidine-1-carbonyl)-5-oxodecahydro-1H-cyclopropa[d]pyrrolo[1,2-a]azocin-6-yl)carbamoyl)benzo[b]thiophen-5-yl)fluoromethyl)(phenoxy)phosphoryl)-L-alaninate]: the IC50 was under 100 nM.

The molecule `CCCOC(=O)[C@H](C)NP(=O)(Oc1ccccc1)C(F)c1ccc2sc(C(=O)N[C@H]3C[C@@H]4C[C@@H]4C[C@H]4CC[C@@H](C(=O)N5CC(N6CCS(=O)(=O)CC6)C5)N4C3=O)cc2c1` (stereo partly drawn) [Compound 310, propyl(((2-(((3S,6S,7aS,8aR,9aR)-3-(3-(1,1-dioxidothiomorpholino)azetidine-1-carbonyl)-5-oxodecahydro-1H-cyclopropa[d]pyrrolo[1,2-a]azocin-6-yl)carbamoyl)benzo[b]thiophen-5-yl)fluoromethyl)(phenoxy)phosphoryl)-L-alaninate] had an IC50 of over 3000 nM.

`CCCOC(=O)[C@H](C)NP(=O)(Cc1ccc2sc(C(=O)N[C@H]3C[C@H]4C[C@H]4C[C@H]4CC[C@@H](C(=O)N5CC(c6cnccc6N(C)C)C5)N4C3=O)cc2c1)Oc1ccccc1` (stereo partly drawn) [Compound 397, propyl(((2-(((3S,6S,7aR,8aS,9aR)-3-(3-(4-(dimethylamino)pyridin-3-yl)azetidine-1-carbonyl)-5-oxodecahydro-1H-cyclopropa[d]pyrrolo[1,2-a]azocin-6-yl)carbamoyl)benzo[b]thiophen-5-yl)methyl)(phenoxy)phosphoryl)-L-alaninate] displayed an IC50 of under 100 nM.

On to `CCCOC(=O)[C@H](C)NP(=O)(Cc1ccc2sc(C(=O)N[C@H]3C[C@H]4C[C@H]4C[C@H]4CC[C@@H](C(=O)N5CC(c6cnccc6CC)C5)N4C3=O)cc2c1)Oc1ccccc1` (stereo partly drawn) [Compound 392, propyl(((2-(((3S,6S,7aR,8aS,9aR)-3-(3-(4-ethylpyridin-3-yl)azetidine-1-carbonyl)-5-oxodecahydro-1H-cyclopropa[d]pyrrolo[1,2-a]azocin-6-yl)carbamoyl)benzo[b]thiophen-5-yl)methyl)(phenoxy)phosphoryl)-L-alaninate], for which the IC50 was under 100 nM.

The same assay, now with this note: PBMC, compound 3 hrs, then 10 ng/mL IL-6 for 10 min; MSD pY705-STAT3; read-out: pSTAT3.
On to `CCCOC(=O)[C@H](C)NP(=O)(Cc1ccc2sc(C(=O)N[C@H]3C[C@H]4C[C@H]4C[C@H]4CC[C@@H](C(=O)N[C@H]5CN(c6cccnc6)C[C@@H]5F)N4C3=O)cc2c1)Oc1ccccc1` (stereo partly drawn) [Compound 269, propyl(((2-(((3S,6S,7aR,8aS,9aR)-3-(((3S,4S)-4-fluoro-1-(pyridin-3-yl)pyrrolidin-3-yl)carbamoyl)-5-oxodecahydro-1H-cyclopropa[d]pyrrolo[1,2-a]azocin-6-yl)carbamoyl)benzo[b]thiophen-5-yl)methyl)(phenoxy)phosphoryl)-L-alaniante], for which the IC50 is under 100 nM.

As to `CC(C)(C)C(=O)SCCOP(=O)(OCCSC(=O)C(C)(C)C)C(F)(F)c1ccc2sc(C(=O)N[C@H]3C[C@@H]4C[C@@H]4C[C@H]4CC[C@@H](C(=O)N5CC(c6cnccc6F)C5)N4C3=O)cc2c1` [Compound 308, S,S′-((((difluoro(2-(((3S,6S,7aS,8aR,9aR)-3-(3-(4-fluoropyridin-3-yl)azetidine-1-carbonyl)-5-oxodecahydro-1H-cyclopropa[d]pyrrolo[1,2-a]azocin-6-yl)carbamoyl)benzo[b]thiophen-5-yl)methyl)phosphoryl)bis(oxy))bis(ethane-2,1-diyl))bis(2,2-dimethylpropanethioate)], the IC50 was under 100 nM.

As to `CCCOC(=O)[C@H](C)NP(=O)(Oc1ccccc1)C(F)c1ccc2sc(C(=O)N[C@H]3C[C@@H]4C[C@@H]4C[C@H]4CC[C@@H](C(=O)N5CC(CS(C)(=O)=O)C5)N4C3=O)cc2c1` (stereo partly drawn) [Compound 363, propyl ((fluoro(2-(((3S,6S,7aS,8aR,9aR)-3-(3-((methylsulfonyl)methyl)azetidine-1-carbonyl)-5-oxodecahydro-1H-cyclopropa[d]pyrrolo[1,2-a]azocin-6-yl)carbamoyl)benzo[b]thiophen-5-yl)methyl)(phenoxy)phosphoryl)-L-alaninate], the IC50 lay within 100 to 1000 nM.

With `CCCOC(=O)[C@H](C)N[P@@](=O)(Oc1ccccc1)[C@H](F)c1ccc2sc(C(=O)N[C@H]3C[C@H]4C[C@H]4C[C@H]4CC[C@@H](C(=O)N5CC(c6cnccc6N(C)C)C5)N4C3=O)cc2c1` [Compound 399], the IC50 is under 100 nM.

Take `CCCOC(=O)[C@H](C)NP(=O)(Oc1ccccc1)C(F)c1ccc2sc(C(=O)N[C@H]3C[C@H]4C[C@H]4C[C@H]4CC[C@@H](C(=O)N5CC(c6ncccn6)C5)N4C3=O)cc2c1` (stereo partly drawn) [Compound 338, propyl ((fluoro(2-(((3S,6S,7aR,8aS,9aR)-5-oxo-3-(3-(pyrimidin-2-yl)azetidine-1-carbonyl)decahydro-1H-cyclopropa[d]pyrrolo[1,2-a]azocin-6-yl)carbamoyl)benzo[b]thiophen-5-yl)methyl)(phenoxy)phosphoryl)-L-alaninate]: the IC50 was under 100 nM.

For `CCCOC(=O)[C@H](C)NP(=O)(Oc1ccccc1)C(F)c1ccc2sc(C(=O)N[C@H]3C[C@H]4C[C@H]4C[C@H]4CC[C@@H](C(=O)N5CC(c6nncn6C)C5)N4C3=O)cc2c1` (stereo partly drawn) [Compound 332, propyl ((fluoro(2-(((3S,6S,7aR,8aS,9aR)-3-(3-(4-methyl-4H-1,2,4-triazol-3-yl)azetidine-1-carbonyl)-5-oxodecahydro-1H-cyclopropa[d]pyrrolo[1,2-a]azocin-6-yl)carbamoyl)benzo[b]thiophen-5-yl)methyl)(phenoxy)phosphoryl)-L-alaninate], the IC50 was over 3000 nM.

In the case of `CCCOC(=O)C(C)(C)NP(=O)(Oc1ccccc1)C(F)c1ccc2sc(C(=O)N[C@H]3C[C@@H]4C[C@@H]4C[C@H]4CC[C@@H](C(=O)N5CC(c6cnccc6C)C5)N4C3=O)cc2c1` (stereo partly drawn) [Compound 285, propyl 2-(((fluoro(2-(((3S,6S,7aS,8aR,9aR)-3-(3-(4-methylpyridin-3-yl)azetidine-1-carbonyl)-5-oxodecahydro-1H-cyclopropa[d]pyrrolo[1,2-a]azocin-6-yl)carbamoyl)benzo[b]thiophen-5-yl)methyl)(phenoxy)phosphoryl)amino)-2-methylpropanoate], the IC50 was under 100 nM.

For the molecule `CCCOC(=O)C(C)NP(=O)(Oc1ccccc1)C(F)c1ccc2sc(C(=O)N[C@H]3C[C@@H]4C[C@@H]4C[C@H]4CC[C@@H](C(=O)N5C[C@@H]6[C@H]5CCN6c5cccnc5)N4C3=O)cc2c1` (stereo in doubt) [Compound 298, propyl ((fluoro(2-(((3S,6S,7aS,8aR,9aR)-5-oxo-3-((1R,5R)-2-(pyridin-3-yl)-2,6-diazabicyclo[3.2.0]heptane-6-carbonyl)decahydro-1H-cyclopropa[d]pyrrolo[1,2-a]azocin-6-yl)carbamoyl)benzo[b]thiophen-5-yl)methyl)(phenoxy)phosphoryl)-L-alaninate], the IC50 was under 100 nM.

The record behind these values is US20250215030A1, “STAT MODULATORS AND USES THEREOF” (Recludix Pharma, Inc., priority 2022, published 2025).
